Assay results published in patent US9695159B2, “Process for preparation of canagliflozin” (Glenmark Pharmaceuticals Limited, priority 2014, dated 2017).
Values belong to the compound of their own block, whether it stands above or below them.

Experiment: Hygroscopic study: water content by KF and description after exposure to 25° C./60% RH and 25° C./90% RH
Type: physicochemical
Method: Method for Measuring the Water Content
About 10 g canagliflozin was exposed to 25° C. and 60% relative humidity and 25° C. and 90% relative humidity conditions. About 300 mg of sample was withdrawn each time at the timely intervals of 1 hr, 2 hrs, 4 hrs, 8 hrs, 12 hrs, 24 hrs and 48 hrs from the conditions and tested for description and water content by KF. The water content was calculated by the following formula: […]
Results of Hygroscopic Study for Canagliflozin Obtained as Per Example 16

Description (25° C./60% RH, 1 hr): Off white
Moisture content by KF (%) (25° C./60% RH, 1 hr): 2.22%
Description (25° C./60% RH, 2 hrs): Off white
Moisture content by KF (%) (25° C./60% RH, 2 hrs): 2.29%
Description (25° C./60% RH, 4 hrs): Off white
Moisture content by KF (%) (25° C./60% RH, 4 hrs): 2.33%
Description (25° C./60% RH, 8 hrs): Off white
Moisture content by KF (%) (25° C./60% RH, 8 hrs): 2.35%
Description (25° C./60% RH, 12 hrs): Off white
Moisture content by KF (%) (25° C./60% RH, 12 hrs): 2.39%
Description (25° C./60% RH, 24 hrs): Off white
Moisture content by KF (%) (25° C./60% RH, 24 hrs): 2.42%
Description (25° C./60% RH, 48 hrs): Off white
Moisture content by KF (%) (25° C./60% RH, 48 hrs): 2.49%
Description (25° C./60% RH, Initial): Off white
Moisture content by KF (%) (25° C./60% RH, Initial): 2.19%
Description (25° C./90% RH, 1 hr): Off white
Moisture content by KF (%) (25° C./90% RH, 1 hr): 2.36%
Description (25° C./90% RH, 2 hrs): Off white
Moisture content by KF (%) (25° C./90% RH, 2 hrs): 2.48%
Description (25° C./90% RH, 4 hrs): Off white
Moisture content by KF (%) (25° C./90% RH, 4 hrs): 2.52%
Description (25° C./90% RH, 8 hrs): Off white
Moisture content by KF (%) (25° C./90% RH, 8 hrs): 2.69%
Description (25° C./90% RH, 12 hrs): Off white
Moisture content by KF (%) (25° C./90% RH, 12 hrs): 2.87%
Description (25° C./90% RH, 24 hrs): Off white
Moisture content by KF (%) (25° C./90% RH, 24 hrs): 3.17%
Description (25° C./90% RH, 48 hrs): Off white
Moisture content by KF (%) (25° C./90% RH, 48 hrs): 3.48%
Description (25° C./90% RH, Initial): Off white
Moisture content by KF (%) (25° C./90% RH, Initial): 2.19%
Structure (SMILES): Cc1ccc([C@@H]2O[C@H](CO)[C@@H](O)[C@H](O)[C@H]2O)cc1Cc1ccc(-c2ccc(F)cc2)s1 [Canagliflozin, 1(S)-1,5-anhydro-1-[3[[5-(4-fluorophenyl)-2-thienyl]methyl]-4-methylphenyl]-D-glucitol]

increase of moisture content (exposed for 48 hours to 25° C. and 60% relative humidity): ≤ 0.4%
increase of moisture content (exposed for 48 hours to 25° C. and 90% relative humidity): ≤ 0.4%
Structure (SMILES): Cc1ccc([C@@H]2O[C@H](CO)[C@@H](O)[C@H](O)[C@H]2O)cc1Cc1ccc(-c2ccc(F)cc2)s1 [amorphous canagliflozin, 1(S)-1,5-anhydro-1-[3[[5-(4-fluorophenyl)-2-thienyl]methyl]-4-methylphenyl]-D-glucitol]
